Assay results from the SangsterLogP compilation.

Assay: from Nakagawa, S.; Okajima, N.; Kitahaba, T.; Nishimura, K.; Fujita, T.; Nakajima, M. (1982). Quantitative structure-activity studies of substituted benzylchrysanthemates. I. Correlation between …
Work on `CC(=O)OCc1ccc(Cl)cc1` yielded a logP of 2.59. `CC(C)=C[C@@H]1[C@@H](C(=O)OCc2ccc(C#N)cc2)C1(C)C` showed a logP of 4.91. With `CC(=O)OCc1coc(Cc2ccccc2)c1` the logP was 3.24. `CC(=O)OCc1ccc([N+](=O)[O-])cc1` showed a logP of 1.73. Molecule `CC(C)=C[C@@H]1[C@@H](C(=O)OCc2ccccc2[N+](=O)[O-])C1(C)C` has a logP of 5.2. For `COC(=O)C1C(C=C(Cl)Cl)C1(C)C` (stereo not drawn), the logP was 3.63. In the case of `COC(=O)C1C(C=C2CCSC2=O)C1(C)C` (stereo not drawn), the logP was 2.33. Molecule `COc1cccc(COC(C)=O)c1` has a logP of 2.02. `CC(C)=CC1C(C(=O)OCc2ccccc2)C1(C)C` (stereo not drawn) showed a logP of 5.49. For `COC(=O)[C@@H]1[C@@H](C=C(C)C)C1(C)C`, the logP was 3.76. With `CC(=O)OCN1C(=O)C2=C(CCCC2)C1=O` the logP was 1.15. Work on `C=CCC1=C(C)[C@H](OC(=O)C2C(C=C(C)C)C2(C)C)CC1=O` (stereo partly drawn) yielded a logP of 4.78. In the case of `CC(=O)OCc1ccc(C)cc1`, the logP was 2.44.
